{
  "source": "patent US12709609B2",
  "about": "“Crystalline form of Selinexor” (Karyopharm Therapeutics Inc., priority 2020, dated 2026)",
  "key": {"[1]": {"assay": "Thermogravimetric analysis (TGA)", "assay_type": "physicochemical", "details": "from ambient temperature to about 200° C., followed by sample degradation", "procedure": "TGA data were collected on a TA Instruments Q500 TGA, equipped with a 16 position auto-sampler. Typically, 5-10 mg of each sample was loaded onto a pre-tared aluminum DSC pan and heated to 10° C./min from ambient temperature to 350° C. A nitrogen purge at 60 ml/min was maintained over the sample. The instrument control software was Advantage for Q Series and Thermal Advantage and the data were analysed using Universal Analysis or TRIOS"}, "[2]": {"assay": "Dynamic vapor sorption (DVS) moisture sorption isotherm", "assay_type": "physicochemical", "procedure": "Sorption isotherms were obtained using a SMS DVS Intrinsic moisture sorption analyser, controlled by DVS Intrinsic Control software. The sample temperature was maintained at 25° C. by the instrument controls. The humidity was controlled by mixing streams of dry and wet nitrogen, with a total flow rate of 200 ml/min. The relative humidity was measured by a calibrated Rotronic probe (dynamic range of 1.0-100% RH), located near the sample. The weight change, (mass relaxation) of the sample as a function of % RH was constantly monitored by a microbalance (accuracy±0.005 mg). Typically, 5 to 30 mg of sample was placed in a tared mesh stainless steel basket under ambient conditions. The sample was loaded and unloaded at 40% RH and 25° C. (typical room conditions). A moisture sorption isotherm was performed as outlined below (2 scans per complete cycle). The standard isotherm was performed at 25° C. at 10% RH intervals over a 0-90% RH range. Typically, a double cycle (4 scans) was carried out. Data analysis was carried out within Microsoft Excel using the DVS Analysis Suite. [table] The sample was recovered after completion of the isotherm and re-analysed by XRPD."}},
  "data": [
    {"smiles": "O=C(/C=C\\n1cnc(-c2cc(C(F)(F)F)cc(C(F)(F)F)c2)n1)NNc1cnccn1", "note": "[crystalline Form ZL, (Z)-3-(3-(3,5-bis(trifluoromethyl)phenyl)-1H-1,2,4-triazol-1-yl)-N′-(pyrazin-2-yl) acrylohydrazide]", "values": [
      {"measurement": "TGA weight change on heating", "setting": "[1]", "value": "No weight change"},
      {"measurement": "XRPD pattern after the DVS cycle compared with XRPD prior to the DVS cycle (form stability)", "setting": "[2]; after DVS cycle 0-90% RH", "value": "identical"},
      {"measurement": "DVS weight gain", "setting": "[2]; at 90% RH, 25° C., two DVS cycles", "value": "about 0.16%"},
      {"measurement": "moisture uptake behaviour in DVS", "setting": "[2]; over 0-90% RH range", "value": "gradual reversible uptake"}
    ]}
  ]
}
